The values below come from patent US7825132B2, “Inhibition of FGFR3 and treatment of multiple myeloma” (Novartis Vaccines and Diagnostics, Inc., priority 2002, dated 2010).

The target of one series is CYP2C19 (Homo sapiens, UniProt P33261). Kind of series: Inhibition of cDNA derived CYP isozymes. Type of series: in vitro ADME. To be noted: cDNA-derived (recombinant) CYP2C19.
The target in the next series is T1, CYP1A2 (Homo sapiens, UniProt P05177).
T1 sequence (P05177 1-516): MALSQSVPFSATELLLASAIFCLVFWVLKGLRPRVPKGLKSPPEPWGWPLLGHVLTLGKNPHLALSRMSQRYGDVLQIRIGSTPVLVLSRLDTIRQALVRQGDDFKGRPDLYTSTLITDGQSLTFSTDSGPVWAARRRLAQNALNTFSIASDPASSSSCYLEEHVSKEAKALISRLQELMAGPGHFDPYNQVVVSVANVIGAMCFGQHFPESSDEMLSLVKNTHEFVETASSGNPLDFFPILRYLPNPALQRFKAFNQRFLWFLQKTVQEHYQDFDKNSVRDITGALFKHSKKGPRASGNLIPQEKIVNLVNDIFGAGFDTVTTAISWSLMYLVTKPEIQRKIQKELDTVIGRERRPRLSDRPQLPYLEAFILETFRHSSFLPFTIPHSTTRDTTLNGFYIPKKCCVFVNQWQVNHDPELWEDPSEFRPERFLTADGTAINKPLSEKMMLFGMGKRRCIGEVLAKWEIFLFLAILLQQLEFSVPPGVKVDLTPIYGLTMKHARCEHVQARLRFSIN
Kind of series: Inhibition of cDNA derived CYP isozymes. To be noted: cDNA-derived (recombinant) CYP1A2. Type of series: in vitro ADME. An excerpt:
(§1) The compound was stable in human liver microsomes. […].

Another series has as its target CYP2C9 (Homo sapiens, UniProt P11712). The series is described as follows: Inhibition of cDNA derived CYP isozymes. To be noted: cDNA-derived (recombinant) CYP2C9. Type of series: in vitro ADME.
Excerpt: as §1

In a further series the target is CYP3A4 (Homo sapiens, UniProt P08684). The series is described as follows: Inhibition of cDNA derived CYP isozymes. Type of series: in vitro ADME. To be noted: cDNA-derived (recombinant) CYP3A4.
Sequence of CYP3A4 (P08684 whole entry): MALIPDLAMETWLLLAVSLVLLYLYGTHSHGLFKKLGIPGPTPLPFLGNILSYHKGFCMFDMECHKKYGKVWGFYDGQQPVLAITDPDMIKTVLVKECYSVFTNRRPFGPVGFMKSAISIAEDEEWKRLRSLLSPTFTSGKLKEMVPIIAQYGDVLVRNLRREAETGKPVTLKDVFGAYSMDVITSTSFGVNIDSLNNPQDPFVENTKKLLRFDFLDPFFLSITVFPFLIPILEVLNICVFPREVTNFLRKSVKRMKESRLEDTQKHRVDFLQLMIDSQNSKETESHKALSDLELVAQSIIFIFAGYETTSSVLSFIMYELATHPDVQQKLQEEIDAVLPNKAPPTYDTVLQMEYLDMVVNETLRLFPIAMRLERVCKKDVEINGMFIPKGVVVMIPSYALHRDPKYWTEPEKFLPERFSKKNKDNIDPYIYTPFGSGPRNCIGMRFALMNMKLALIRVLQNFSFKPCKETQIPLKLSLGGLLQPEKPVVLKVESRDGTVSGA
Excerpt: as §1

Series [1] deals with FGF-2 supplemented Matrigel neovascularization.
In the next series the target is CYP2D6 (Homo sapiens, UniProt P10635). The series is described as follows: Inhibition of cDNA derived CYP isozymes. To be noted: cDNA-derived (recombinant) CYP2D6. Type of series: in vitro ADME.
Sequence of CYP2D6 (P10635 whole entry): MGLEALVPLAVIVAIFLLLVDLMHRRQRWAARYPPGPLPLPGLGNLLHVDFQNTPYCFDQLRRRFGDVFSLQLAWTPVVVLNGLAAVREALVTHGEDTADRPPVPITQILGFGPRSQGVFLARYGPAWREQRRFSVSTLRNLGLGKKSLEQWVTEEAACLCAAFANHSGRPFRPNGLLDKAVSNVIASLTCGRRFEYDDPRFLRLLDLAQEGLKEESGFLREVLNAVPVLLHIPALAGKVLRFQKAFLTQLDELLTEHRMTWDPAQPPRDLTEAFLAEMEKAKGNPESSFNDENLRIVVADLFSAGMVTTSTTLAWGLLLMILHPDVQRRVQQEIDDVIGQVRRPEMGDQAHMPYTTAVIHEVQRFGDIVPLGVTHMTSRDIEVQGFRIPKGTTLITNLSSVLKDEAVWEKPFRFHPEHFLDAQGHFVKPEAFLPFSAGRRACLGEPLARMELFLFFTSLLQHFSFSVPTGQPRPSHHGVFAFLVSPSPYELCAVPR
In a further series the test system is TF-1 cells. Kind of series: cells. To be noted: Homo sapiens, TF-1, 72 h.
The test system of series [2] is VEGFR1, VEGFR2, PDGFRβ, and FGFR1. To be noted: KM12L4a tumors after treatment.
The next series concerns ERK (MAPK). Kind of series: ERK (MAPK) phosphorylation in HCT116 tumors. Type of series: in vivo. To be noted: dose- and time-dependent.
Series [3] relates to PC3 human prostate tumor xenografts.
The nature of series [4]: Monkey multiple oral dose experiment, plasma levels. To be noted: compound 1 5 mg/kg BID oral, day 1 and 14 samples. Type of series: in vivo.
Another series deals with T2, c-Kit (Homo sapiens, UniProt P10721).
T2 construct: Recombinant proteins corresponding to the cytoplasmic domains of the c-Kit and FLT-3 receptors were purchased (Proquinase); purchased Proquinase
T2 sequence (P10721 546-976 limits assumed): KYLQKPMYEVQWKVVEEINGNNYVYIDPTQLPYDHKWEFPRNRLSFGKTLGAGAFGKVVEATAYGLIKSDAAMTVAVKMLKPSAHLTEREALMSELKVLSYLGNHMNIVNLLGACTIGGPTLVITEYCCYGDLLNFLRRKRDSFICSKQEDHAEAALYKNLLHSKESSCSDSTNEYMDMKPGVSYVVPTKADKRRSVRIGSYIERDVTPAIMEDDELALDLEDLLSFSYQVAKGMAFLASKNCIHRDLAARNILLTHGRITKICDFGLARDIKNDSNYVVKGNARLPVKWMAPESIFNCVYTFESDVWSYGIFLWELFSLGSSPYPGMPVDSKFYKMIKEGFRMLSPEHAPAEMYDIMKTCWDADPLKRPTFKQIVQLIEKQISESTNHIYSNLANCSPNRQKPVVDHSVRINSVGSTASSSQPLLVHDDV
Kind of series: In vitro RTK kinase assay (TRF or radioactive). Type of series: biochemical. To be noted: Table 13.

Series [5] is described as follows: Compound 1 and metabolite levels in rat plasma, 2 week toxicology study. Type of series: in vivo.
The test system of series [6] is cancer and primary cell lines. The series is described as follows: antiproliferative activity, MTS assay, 27 cancer and primary cell lines (Table 6). Type of series: cell-based. To be noted: Homo sapiens, 26 out of the 27 cell lines, 72 hours. The procedure: . […] The EC50 values were calculated using nonlinear regression. […]
On the technique in general: Tetrazolium assays rely on reduction of a dye to a coloured formazan, in cell work by metabolically active cells.

A further series has as its system OPM-2 cells. To be noted: Grand et al., Leukemia 2004; cited from earlier work.

SMILES strings stand for the structures. Like-named read-outs stand apart in the source and are kept apart here.

Sequence of CYP2C9 (P11712 whole entry): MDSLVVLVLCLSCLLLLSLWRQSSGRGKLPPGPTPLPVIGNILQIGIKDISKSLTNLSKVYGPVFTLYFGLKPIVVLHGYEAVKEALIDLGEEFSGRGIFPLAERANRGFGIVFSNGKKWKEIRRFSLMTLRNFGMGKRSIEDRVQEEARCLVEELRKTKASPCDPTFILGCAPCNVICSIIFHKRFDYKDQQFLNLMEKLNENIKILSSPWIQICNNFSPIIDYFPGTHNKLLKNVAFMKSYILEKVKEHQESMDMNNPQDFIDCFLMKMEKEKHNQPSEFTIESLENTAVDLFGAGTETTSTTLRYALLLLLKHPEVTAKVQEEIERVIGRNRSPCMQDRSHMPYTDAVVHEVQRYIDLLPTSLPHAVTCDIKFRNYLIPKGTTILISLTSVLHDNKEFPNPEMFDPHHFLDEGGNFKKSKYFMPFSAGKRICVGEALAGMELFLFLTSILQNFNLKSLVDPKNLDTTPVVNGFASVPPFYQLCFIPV
Sequence of CYP2C19 (P33261 whole entry): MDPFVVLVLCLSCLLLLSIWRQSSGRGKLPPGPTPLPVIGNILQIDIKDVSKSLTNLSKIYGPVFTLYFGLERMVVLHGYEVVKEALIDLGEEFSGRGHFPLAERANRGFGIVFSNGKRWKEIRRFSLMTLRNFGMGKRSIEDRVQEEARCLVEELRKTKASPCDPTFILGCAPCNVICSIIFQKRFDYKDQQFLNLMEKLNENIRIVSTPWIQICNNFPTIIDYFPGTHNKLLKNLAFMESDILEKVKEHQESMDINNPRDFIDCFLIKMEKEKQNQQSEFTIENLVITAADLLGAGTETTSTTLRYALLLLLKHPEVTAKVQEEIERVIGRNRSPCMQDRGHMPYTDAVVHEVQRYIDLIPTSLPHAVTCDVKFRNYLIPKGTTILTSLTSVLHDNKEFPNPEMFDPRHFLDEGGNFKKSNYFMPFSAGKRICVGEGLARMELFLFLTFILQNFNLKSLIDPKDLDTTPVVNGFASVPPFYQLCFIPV

As usually defined, the IC50 is the concentration that inhibits the measured activity by half. Regarding `CN1CCN(c2ccc3nc(-c4c(N)c5c(F)cccc5[nH]c4=O)[nH]c3c2)CC1`, the IC50 at CYP2C19, at CYP1A2, on CYP2C9, on CYP3A4 and on CYP2D6 was over 25 µM each time. Besides, the tolerability entry in series [1] (mouse, in vivo) was “well tolerated”.
As usually defined, the EC50 is the midpoint of the concentration-response curve. `CN1CCN(c2ccc3nc(-c4c(N)c5c(F)cccc5[nH]c4=O)[nH]c3c2)CC1` [Compound 1] returned an EC50 in the series with TF-1 cells of at most 0.05 µM. Besides, in [2], the “phosphorylation of VEGFR1, VEGFR2, PDGFRβ, and FGFR1” value was “inhibited in a time- and dose-dependent manner”. In addition, the “phosphorylation of ERK (MAPK)” value with ERK (MAPK) was “inhibited”. Further, the “% Hb inhibition vs. Vehicle treatment of Matrigel + FGF” value in [1] (30 mg/kg) worked out at 71%; in series [1] (200 mg/kg), 89%; in [1] (300 mg/kg), 91%. Also, in series [1] (range over 30, 100, 200 and 300 mg/kg), the “inhibition vs. FGF-supplemented controls” value is listed as 70-92%. Further, the “% TGI vs. vehicle” value in series [3] (100 mpk q 2 days) was 75%; in [3] (100 mpk q 3 days) it was 68%; in [3] (100 mpk q 4 days), 66%; in [3] (100 mpk qd, days 1-11) it was 60%.
For the molecule `C[N+]1([O-])CCN(c2ccc3nc(-c4c(N)c5c(F)cccc5[nH]c4=O)[nH]c3c2)CC1` [Compound 2, 4-Amino-5-fluoro-3-[5-(4-methyl-4-oxidopiperazin-1-yl)-1H-benzimidazol-2-yl]quinolin-2(1H)-one], the “presence of the N-oxide metabolite in monkey plasma” value in series [4] is given as “not detected”. Further, the IC50 at c-Kit came out at 0.0002 µM.
Consider `Nc1c(-c2nc3ccc(N4CCNCC4)cc3[nH]2)c(=O)[nH]c2cccc(F)c12` [Compound 3, 4-Amino-5-fluoro-3-(5-piperazin-1-yl-1H-benzimidazol-2-yl)quinolin-2(1H)-one], for which, on c-Kit, the IC50 amounted to 0.0002 µM. Moreover, the “Des-CH3 (ng/ml), estimated from UV” value in series [5] (compound 1 30 mg/kg PO, Day 14, 1-2 hr) is 6 ng/mL; in [5] (compound 1 30 mg/kg PO, Day 14, 4-8 hr), 12 ng/mL; in series [5] (compound 1 100 mg/kg PO, Day 1, 1-2 hr), 35 ng/mL; in series [5] (compound 1 100 mg/kg PO, Day 1, 4-8 hr), 84 ng/mL.
Consider `CN1CCN(c2ccc3[nH]c(-c4c(N)c5c(F)cccc5[nH]c4=O)nc3c2)CC1` [Example 166], for which, in series [6], the EC50 was under 10 µM.
Regarding `CCN(CC)CCCCNc1ncc2cc(-c3cc(OC)cc(OC)c3)c(NC(=O)NC(C)(C)C)nc2n1` [PD173074], the “cytotoxic response / apoptosis in OPM2 cells” value with OPM-2 cells is on record as “failed to induce apoptosis”.
